What was measured:
[1] = Photo-physical properties in aqueous HEPES buffer solution; format: physicochemical; details: aqueous HEPES buffer 20 mM, pH 7.4
Protocol: Photo-physical properties of I-1-I-5 was measured in aqueous HEPES [4-(2-hydroxyethyl)piperazine-1-ethanesulfonic acid] buffer solution (20 mM, pH 7.4); NAO bromide was used as reference compound. Similar to NAO, derivatives I-1-I-5 have absorption maxima at 494-498 nm, and emission maxima at 528-529 nm (Table 1). […] Moreover, the trimethylsilylpropyl substituent in position 10 improved PLQY up to 60.7% (I-5). […] The introduction of longer alkyl chains such as nonyl and dodecyl led to PLQY decrease.

[2] = Fluorescence intensity on interaction with CL/DOPC liposomes; format: binding; details: for fluorescence intensity after interaction with CL/DOPC liposomes: CL/DOPC liposomes (3:1), end value of the drop; for fluorescence intensity before interaction with CL/DOPC liposomes: start value of the drop
Protocol: (§1) Liposomes preparation. Vesicles were prepared by classic thin film method. […] Obtained large multilamellar liposomes were sonicated in a bath-type sonicator at room temperature for 30 min following by extrusion through a 100 nm polycarbonate filter for 21 times. The quality of the resulting small unilamellar vesicles was monitored by dynamic light scattering (DLS) technique. These stock solutions were diluted 5-fold to acquire 2nd stock solutions that were used in the fluorometric experiments.

[3] = Fluorescence intensity in the presence of DOPC liposomes without cardiolipin (selectivity); format: binding
Protocol: (§2) Besides, NAO fluorescence intensity loss during interaction of DOPC was detected at 5.6% level.
as §1

[4] = Stability of fluorescence during experiments; format: physicochemical; details: in 30 minutes
Excerpt: as §2

[5] = Titration with cardiolipin, linear regression curve; format: binding
Protocol: as §1

[6] = decrease of green fluorescence in the presence of CL; cited from earlier work

Row | SMILES | Φ (PLQY, photoluminescence quantum yield) [1] | λabs [1] | λem [1] | fluorescence intensity after interaction with CL/DOPC liposomes [2] | fluorescence intensity before interaction with CL/DOPC liposomes [2] | fluorescence intensity drop in the presence of DOPC liposomes [3] | fluorescence intensity drop during experiments [4] | linear slope of the titration curve [5] | CL content that can be quantitatively analyzed [6]
1 | C[n+]1c2cc(N3CCC3)ccc2cc2ccc(N3CCC3)cc21.[I-] [Compound I-1, 3,6-di(azetidin-1-yl)-10-methylacridin-10-ium iodide] | 59.9% | 497 nm | 529 nm |  |  |  |  |  | 
2 | [2H]C([2H])([2H])[n+]1c2cc(N3CCC3)ccc2cc2ccc(N3CCC3)cc21.[I-] [Compound I-2, 3,6-di(azetidin-1-yl)-10-(methyl-d3)acridin-10-ium iodide] | 61.5% | 497 nm | 529 nm |  |  |  |  |  | 
3 | CCCCCCCCC[n+]1c2cc(N3CCC3)ccc2cc2ccc(N3CCC3)cc21.[I-] [Compound I-3, 3,6-di(azetidin-1-yl)-10-nonylacridin-10-ium iodide] | 47.9% | 498 nm | 529 nm |  |  |  |  |  | 
4 | CCCCCCCCCCCC[n+]1c2cc(N3CCC3)ccc2cc2ccc(N3CCC3)cc21.[I-] [Compound I-4, 3,6-di(azetidin-1-yl)-10-dodecylacridin-10-ium iodide] | 16.1% | 494 nm | 528 nm |  |  |  |  |  | 
5 | C[Si](C)(C)CCC[n+]1c2cc(N3CCC3)ccc2cc2ccc(N3CCC3)cc21.[I-] [Compound I-5, 3,6-di(azetidin-1-yl)-10-(3-(trimethylsilyl)propyl)acridin-10-ium iodide] | 60.7% | 497 nm | 529 nm | 6600 a.u. | 65800 a.u. | 7.7% | remaining the same | −6259±250 | 
6 | CCCCCCCCC[n+]1c2cc(N(C)C)ccc2cc2ccc(N(C)C)cc21 [NAO, 10-N-nonyl acridine orange, reference compound] | 15.5% | 498 nm | 528 nm | 1260 a.u. | 13300 a.u. | 5.6% | 15.5% | −1222±49 | 0.2 to 10 µM

Source: patent publication US12630719B2, “Fluorescent acridinium salts, synthesis thereof and use for detection of cardiolipin” (LATVIAN INSTITUTE OF ORGANIC SYNTHESIS, priority 2019, dated 2026)
